Numbering of substitutions follows the chain as printed. Names may count otherwise.
Key:
4HPA3H = molecular target: T1, 4HPA3H (Escherichia coli, UniProt Q57160); experiment: Whole-cell hydroxylation, cells expressing wild-type 4HPA3H; format: cell-based, E. coli; details: BL21(DE3) cells expressing wild-type 4HPA3H
T1 construct: expressed in transfected cells; host or cells: E. coli BL21(DE3)
Experimental: (§5) Substrates (200 μM) as shown in FIG. 1 were added to suspensions of bacterial cells expressing 4HPA3H or its single (A) and double variants (B). After incubation for 16 hours, catechols and residual substrates were extracted and analyzed by HPLC
(§6) Suspensions of the cells were tested for hydroxylation of a panel of eight phenolic compounds (FIG. 1) which belong to different classes of natural products: we included (I) phenolic acids and ketones such as p-coumaric acid (1), ferulic acid (3), rheosmin (15) and p-hydroxybenzoic acid (9), (II) polycyclic compounds such as the hydroxycoumarin umbelliferone (13), the stilbene resveratrol (5) and the flavonoid naringenin (7). […] 4HPA3H was also tested for conversion of 4-methoxycinnamic acid and 4-aminocinnamic acid.

wild-type 4HPA3H = molecular target: T2, wild-type 4HPA3H (Escherichia coli, UniProt Q57160); experiment: In vitro hydroxylation by the 4HPA3H/PrnF/FDH system, wild-type 4HPA3H; format: biochemical, E. coli; details: substrate 1 mM, purified wild-type 4HPA3H, optimized conditions
T2 construct: made in house; host or cells: E. coli BL21(DE3)
Experimental: (§1) Purified 4HPA3H (A) or variants (B) (Y301I depicted in white and Y301F/S462A depicted in black) were used for conversion of substrates (1 mM) under optimized conditions. The numbers correspond to substrates as explained in the legend for FIG. 1 above.
(§2) In order to develop an effective and low-cost enzyme system for in vitro hydroxylation, several parameters of the 4HPA3H reaction with respect to maximum reaction rate were optimized. By means of a spectrophotometric assay (Example 4 above), the inventors screened different buffer systems and optimized the concentration of the components p-coumaric acid (1 cf. FIG. 1), FAD, NADH and methanol, the incubation temperature and oxygen transfer (i.e. by variation of the shaking frequency) (optimum conditions are given in the Experimental Section). […] In contrast to the cofactors, the accompanying cofactor recycling redox enzymes PrnF and FDH were used in excess due to their high specific activity.
In accordance with the whole-cell transformation experiments (FIG. 3), product yields in the conversion by the wild-type 4HPA3H (FIG. 8A) ranged from high (1, 13, 15 cf. FIG. 1) or moderate (5 cf. FIG. 1) to low (9, 11 cf. FIG. 1), whereas ferulic acid 3 was not oxidized. […] However, in contrast to the experiments with life biocatalysts […] conversion of naringenin (7 cf. FIG. 1) by the wild-type 4HPA3H (25% yield) was observed (which might be explained by increased substrate availability). The hydroxycarbazole (11) was not accepted by the double variant Y301F/S462A, probably because of the high substrate concentration which seems to reflect strong […] inhibition—an effect which has previously been observed for other 4HPA3H enzymes. Noteworthy, HPLC analysis of the reaction products confirmed product specificity.

[1] = molecular target: T3, 4HPA3H-Y301F/S462A (SEQ ID NO:175) (Escherichia coli, UniProt Q57160, S462A/Y301F); experiment: Solid phase-based cascade (Talon column), hydroxylation of naringenin to eriodictyol; format: biochemical, E. coli
T3 construct: made in house; host or cells: E. coli BL21(DE3)
Experimental: Stock solutions of […] and eriodictyol (10 mM each) in methanol were produced (for the structure of the compounds, see FIG. 9). They were diluted using acetonitrile for obtaining the desired concentrations (70, 110, 140, 210 and 280 μM). 10 μl of each sample was injected in to a HPLC machine and calibration curves were produced for both substances (data not shown).
First the catalysis was performed using 9 mU oxidase 4HPA3H in a 10 ml reaction comprising 1 ml 1M Tris/HCl, pH 7.5; 25 μl of a 10 mM NADH solution, 20 μl of a 5 mM FAD solution and 1 ml formate solution using 9 mU 4HPA3H-Y301F/S462A (SEQ ID NO:175) and 0.57 mU PrnF-reductase (SEQ ID NO:176) and 640 mU FDH (SEQ ID NO:177). Subsequently the enzymes were mixes, 100 μl 1M Tris/HCl solution, pH 7.5, was added and ddH2O (deionized, reverse osmosis) was added ad 2 ml. The enzyme solution was at least 5 times passed through a 1 ml Talon column with a flow rate of 0.1 ml/min^−1 to let the proteins bind to the column in a homogenous way. The evaluation of the complete binding of the proteins to the column material was measured via Bradford assay. Then, the column was washed once with 50 mM Tris/HCl, pH 7.5 (=basis buffer), and connected to a peristaltic pump.
The constituents of each reaction mixture were transferred to a suitable sterile flask, which was then connected to a peristaltic pump. During reaction, the reaction mixture was slightly stirred with the help of a magnetic stirrer. Using a flow rate of 1 ml/min, the system was washed with the basis buffer for 2 min and a control sample was taken. Only then, the substrate was added, here 200 μM naringenin (from a 10 mM stock solution in methanol). The substrate was pumped over the Talon column having the enzymes bound thereto with a flow rate of 1 ml/min at maximum. During the time range from 0-1310 min, the sample extraction was performed in samples of 35 μl each. Said samples were mixed with an equal volume of acetonitrile and were immediately injected into a HPLC device (20 μl each). The evaluation was conducted with the help of a calibration curve done at the beginning of the experiment and thereby measuring and calculating the peak areas (see FIG. 10).
The same assay was performed using 35 mU hydroxylase/1 ml column volume and the concentration of the co-enzymes for regeneration of the cofactor was increased equivalently.

4HPA3H enzymes = details: previous study; cited from earlier work
[2] = Whole-cell hydroxylation, variants compared with wild-type on well-accepted substrates; details: whole cells
Experimental: as §5, §6

[3] = Whole-cell hydroxylation, variants on substrates 5, 9 and 11; format: cell-based; details: whole cells
[4] = In vitro hydroxylation, mutant enzymes on challenging substrates 3 and 7; format: biochemical; details: substrate 1 mM, purified enzymes
Experimental: as §1, §2
In accordance with the whole-cell transformation experiments (FIG. 3), product yields in the conversion by the wild-type 4HPA3H (FIG. 8A) ranged from high (1, 13, 15 cf. FIG. 1) or moderate (5 cf. FIG. 1) to low (9, 11 cf. FIG. 1), whereas ferulic acid 3 was not oxidized. […]

[5] = In vitro catechol complex formation assay (4HPA3H/PrnF/FDH), p-coumaric acid; format: biochemical; details: purified enzyme, optimized conditions, PrnF and FDH
Experimental: (A) Standard curve for the determination of caffeic acid (2 cf. FIG. 1). Mixtures of caffeic acid and p-coumaric acid (1) were incubated with FeCl3 and analyzed at 595 nm as described in the Experimental Section. (B) Time course of the oxidation of p-coumaric acid (1 cf. FIG. 1) by wild-type 4HPA3H. The enzymatic reaction was performed under optimized conditions, and produced caffeic acid (2 cf. FIG. 1) was detected as Fe^3+ complex. Data are the means±standard deviations obtained from three measurements.
(§3) For assaying 4HPA3H in microplate scale, 4HPA3H was incubated with PrnF, the substrate p-coumaric acid (1 cf. FIG. 1) and the formate dehydrogenase (FDH) from Candida boidinii. Similar as reported in our previous publication, this enzyme was introduced for regeneration of the costly cofactor NADH: NAD^+ formed during the reaction is recycled with sodium formate, yielding a sequential three-enzyme cascade for hydride transfer (FIG. 2). The conversion of p-coumaric acid (1 cf. FIG. 1) was measured spectrophotometrically by a previously established catechol complexation method (M. Dippe, B. Weigel, R. Heinke, T. Vogt, L. A. Wessjohann, 2014), which could be applied for quantitative determination of the product caffeic acid (see FIG. 6). […] However, similar to the data obtained from whole-cell biotransformations (see Example 2), these variants were beneficial in the conversion of ferulic acid (3 cf. FIG. 1), which is also reflected by comparably high conversion rates (4HPA3H-Y301F/S462A: 1.06±0.31 nmol min^−1 mg^−1, 4HPA3H-Y301I: 4.49±0.20 nmol min^−1 mg^−1).
(§4) In order to develop an effective and low-cost enzyme system for in vitro hydroxylation, several parameters of the 4HPA3H reaction with respect to maximum reaction rate were optimized. […]

[6] = In vitro assay (4HPA3H/PrnF/FDH), conversion of ferulic acid; format: biochemical; details: purified enzyme, PrnF and FDH
Experimental: as §3, §4

Molecule: Nc1ccc(C=CC(=O)O)cc1 [4-aminocinnamic acid]
- acceptance as substrate (4HPA3H): no substrates

Molecule: COc1ccc(C=CC(=O)O)cc1 [4-methoxycinnamic acid]
- acceptance as substrate (4HPA3H): no substrates

Molecule: O=C(O)/C=C/c1ccc(O)cc1 [Compound 1, p-coumaric acid]
- product yield (wild-type 4HPA3H): high
- acceptance as substrate (4HPA3H): high efficiency

Molecule: COc1cc(/C=C/C(=O)O)ccc1O [Compound 3, ferulic acid]
- product yield (wild-type 4HPA3H): not oxidized
- acceptance as substrate (4HPA3H): not accepted

Molecule: Oc1ccc(C=Cc2cc(O)cc(O)c2)cc1 [Compound 5, resveratrol]
- product yield (wild-type 4HPA3H): moderate

Molecule: O=C1C[C@@H](c2ccc(O)c(O)c2)Oc2cc(O)cc(O)c21 [Compound 8, eriodictyol]
- biocatalytic formation of eriodictyol ([1]; 9 mU enzyme/1 ml column, 200 μM naringenin, after 1290 min): 42.4 µM
- eriodictyol yielded ([1]; 35 mU hydroxylase/1 ml column volume, after 240 min): 67.7 µM

Molecule: O=C(O)c1ccc(O)cc1 [Compound 9, p-hydroxybenzoic acid]
- product yield (wild-type 4HPA3H): low

Molecule: O=c1ccc2ccc(O)cc2o1 [Compound 13, umbelliferone]
- product yield (wild-type 4HPA3H): high

Molecule: CC(=O)CCc1ccc(O)cc1 [Compound 15, rheosmin]
- product yield (wild-type 4HPA3H): high
- conversion / yield of catechol product (4HPA3H; substrate 200 μM, 16 hours, HPLC): 100%

Molecule: O=C(O)C=Cc1ccccc1 [cinnamic acid]
- hydroxylation of substrate (4HPA3H enzymes): unable to hydroxylate

B1: 4HPA3H-Y301F: 4HPA3H single variant Y301F (protein, listed as Escherichia coli)
chain: MKPEDFRASTQRPFTGEEYLKSLQDGREIYIYGERVKDVTTHPAFRNAAASVAQLYDALHKPEMQDSLCWNTDTGSGGYTHKFFRVAKSADDLRQQRDAIAEWSRLSYGWMGRTPDYKAAFGCALGANPGFYGQFEQNARNWYTRIQETGLYFNHAIVNPPIDRHLPTDKVKDVYIKLEKETDAGIIVSGAKVVATNSALTHYNMIGFGSAQVMGENPDFALMFVAPMDADGVKLISRASYEMVAGATGSPYDYPLSSRFDENDAILVMDNVLIPWENVLIYRDFDRCRRWTMEGGFARMFPLQACVRLAVKLDFITALLKKSLECTGTLEFRGVQADLGEVVAWRNTFWALSDSMCSEATPWVNGAYLPDHAALQTYRVLAPMAYAKIKNIIERNVTSGLIYLPSSARDLNNPQIDQYLAKYVRGSNGMDHVQRIKILKLMWDAIGSEFGGRHELYEINYSGSQDEIRLQCLRQAQNSGNMDKMMAMVDRCLSEYDQDGWTVPHLHNNDDINMLDKLLK
modifications: 4HPA3H HpaB Y301F
notes: 4HPA3H single variant Y301F
- activity towards substrates 1, 13, 15 compared with wild-type enzyme [2]: comparably active
- conversion of the substrates 5, 9 and 11 [3]: superior

B2: S462A: 4HPA3H single variant S462A (protein, listed as Escherichia coli)
chain: B1 chain with F301Y, S462A
modifications: 4HPA3H HpaB S462A
- activity towards substrates 1, 13, 15 compared with wild-type enzyme [2]: comparably active

B3: 4HPA3H-Y301I: 4HPA3H single variant with isoleucine at position 301 (protein, listed as Escherichia coli)
chain: B1 chain with F301I
modifications: 4HPA3H HpaB Y301I
notes: 4HPA3H single variant with isoleucine at position 301
- transformation of the challenging substrates 3 and 7 [4]: optimal
- specific activity towards p-coumaric acid (1) [5]: 1.3 ± 0.6 nmol/min/mg
- conversion rate of ferulic acid (3) [6]: 4.49 ± 0.20 nmol/min/mg

B4: 4HPA3H: wild-type 4-hydroxyphenylacetate 3-hydroxylase from E. coli, SEQ ID NO:98 (protein, listed as Escherichia coli)
chain: B1 chain with F301Y
modifications: 4HPA3H HpaB wt
- specific activity towards p-coumaric acid (1) [5]: 6.2 ± 0.5 nmol/min/mg

B5: 4HPA3H-Y301F/S462A: 4HPA3H double variant, SEQ ID NO:175 (protein, listed as Escherichia coli)
chain: B1 chain with S462A
modifications: 4HPA3H HpaB Y301F/S462A
- transformation of the challenging substrates 3 and 7 [4]: optimal
- specific activity towards p-coumaric acid (1) [5]: 1.6 ± 0.3 nmol/min/mg
- conversion rate of ferulic acid (3) [6]: 1.06 ± 0.31 nmol/min/mg

B6: M293P: 4HPA3H single variant M293P (protein, listed as Escherichia coli)
chain: B1 chain with M293P, F301Y
modifications: 4HPA3H HpaB M293P
- activity towards substrates 1, 13, 15 compared with wild-type enzyme [2]: reduced activity

From US10988786B2, “Mutant 4-hydroxyphenylacetate 3-hydroxylases and uses thereof” (SYMRISE AG, priority 2015, dated 2021)
